Molecular target: T1, K2P2.1 (TREK-1) (Mus musculus, UniProt P97438)
T1 construct: expressed in transfected cells; host or cells: Xenopus oocytes (cRNA injection, pGEMHE/pMO)
T1 sequence (P97438 1-411 isoform P97438-2): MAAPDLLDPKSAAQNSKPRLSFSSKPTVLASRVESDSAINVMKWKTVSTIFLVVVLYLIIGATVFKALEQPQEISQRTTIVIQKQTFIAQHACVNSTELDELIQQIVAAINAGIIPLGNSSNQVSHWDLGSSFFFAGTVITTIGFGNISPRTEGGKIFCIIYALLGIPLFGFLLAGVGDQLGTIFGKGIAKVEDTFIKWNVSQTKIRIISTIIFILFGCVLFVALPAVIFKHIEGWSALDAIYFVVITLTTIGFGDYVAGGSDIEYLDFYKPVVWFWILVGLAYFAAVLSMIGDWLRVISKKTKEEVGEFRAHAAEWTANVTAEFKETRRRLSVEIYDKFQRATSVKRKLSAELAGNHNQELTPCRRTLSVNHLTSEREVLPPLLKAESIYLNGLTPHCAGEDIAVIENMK
Assay: Excised membrane patches (outside-out, inside-out) from HEK-293T cells expressing K2P2.1 (TREK-1)
Assay type: cell-based, Murine
Procedure: FIG. 5 ML67-33 activates K2P2.1 (TREK-1) in excised membrane patches a, and b, exemplar I-V curves showing the effect of ML67-33 on K2P2.1 (TREK-1) in a, outside-out and b, inside-out excised patches from HEK-293T cells; currents were elicited by a voltage ramp from −100 to 50 mV from a holding potential of −40 mV. c, Exemplar channel responses to ML67-33 measured at 0 mV in the indicated configurations. Grey region indicates presence of 20 μM ML67-33. d, Times of half-maximal activation following ML67-33 application and recovery from activation (wash) following ML67-33 removal, measured in HEK-293T cells at 0 mV. Error bars: mean±s.e. n≧6, N≧2. ‘**’ indicates p≦0.01 and ‘N.S.’ indicates not significant (p≧0.05) as determined by t-test analysis.
Two-electrode voltage clamp recordings were performed from defolliculated stage V-VI Xenopus oocytes 24-48 hours after injection with 0.015-6.0 ng cRNA, using microelectrodes (0.3-3.0 MΩ) filled with 3M KCl. Data was acquired using the GeneClamp 500B (MDS Analytical Technologies) amplifier controlled by the pClamp software (Molecular Devices), and digitized at 1 kHz using Digidata 1332A (MDS Analytical Technologies). Recording solutions (mM): 2K (96 NaCl, 2 KCl, 1.8 CaCl2, 2 MgCl2), 90K (90 KCl, 8 NaCl, 1.8 CaCl2, 2 MgCl2), were buffered 5 mM HEPES pH 7.4. For K2P recordings, currents we elicited by a 1 second long ramp from −150 to +50 mV from a holding potential of −80 mV (2K), or −100 to +50 mV from a holding potential of 0 mV (90K). For KCNQ2 recordings, currents were elicited by a step protocol from −120 to 60 mV, in 20 mV increments, from a holding potential of −80 mV. Patch-clamp recordings from HEK-293T cells were performed using microelectrodes (2-3 MΩ) filled with 1M KCl. Data was acquired using the Axopatch 200B amplifier controlled by pClamp software, and digitized at 1 kHz using Digidata 1332A. Recording solutions (mM): intracellular (145 KCl, 5 EGTA, 3 MgCl2,) extracellular (150 NaCl, 5 KCl, 3 MgCl2, 1 CaCl2) were buffered with 5 mM HEPES pH 7.2 and 7.4, respectively. Currents were elicited by a 1 second long ramp from −150 to +50 mV from a holding potential of −80 mV. Data were fitted with a modified Hill's equation: I=Imin+(Imax−Imin)/(1+10^((Log EC50−Log [C])*H)), where Imax and Imin are maximal and minimal current values, respectively, EC50 is a half-maximal effective concentration of the compound, and H is the Hill coefficient.
To understand the mechanism of action of ML67-33, we examined how it affected K2P2.1 (TREK-1) expressed in two widely-used experimental systems, Xenopus oocytes and mammalian cells. […] Further, the effects of ML-67-33 were fast, occurring within seconds (half-maximal activation time, 4.1±0.5 s, mean±s.e., n=7, N=2) and were reversible upon washout (FIG. 4d). […] The times of half-maximal activation and return to baseline following compound washout (t1/2act and t1/2wash, respectively) in the outside-out configuration were indistinguishable from the same parameters measured in the whole-cell configuration (t1/2act:t1/2wash, mean±s.e. 4.1±0.5 s:3.9±0.5 s and 4.6±0.9 s:3.1±0.7 s for whole-cell and outside-out, respectively, FIGS. 5c and d). In stark contrast, both t1/2 values slowed substantially when the compound was applied to the inside-out configuration.

CC1(C)c2cc(Cl)ccc2N(CCc2nnn[nH]2)c2ccc(Cl)cc21 [ML67-33, 2,7-dichloro-9,9-dimethyl-10-[2-(1H-tetrazol-5-yl)ethyl]acridine]
t1/2act (inside-out patch): 10.8 ± 1.3 s
t1/2wash (inside-out patch): 22.0 ± 5.1 s
effect on K2P2.1 (TREK-1) in excised patches (in words) (outside-out and inside-out configurations): activated
t1/2act (outside-out patch): 4.6 ± 0.9 s
t1/2wash (outside-out patch): 3.1 ± 0.7 s
